The assay has as its target LRRK2 (Homo sapiens (Human), UniProt Q5S007, G2019S). Kind of assay: In Vitro LRRK2 LabChip Assay. Format: biochemical. Conditions: Table 4. Here is the method: In Vitro LRRK2 LabChip Assay
This assay was used to determine a compound's potency in inhibiting activity of LRRK2 by determining, Kiapp, IC50, or percent inhibition values. In a polypropylene plate, LRRK2, fluorescently-labeled peptide substrate, ATP and test compound were incubated together. Using a LabChip 3000 (Caliper Life Sciences), after the reaction the substrate was separated by capillary electrophoresis into two populations: phosphorylated and unphosphorylated. The relative amounts of each were quantitated by fluorescence intensity. LRRK2 Ki was determined according to the equation: Y=V0*(1−((x+Ki*(1+S/Km)+Et)/(2*Et)−(((x+Ki*(1+S/Km)+Et)^2−(4*Et*x))^0.5)/(2*Et))). Ki values in Table 4 and elsewhere herein are shown in μM.
Assay conditions and materials used were as follows:
Compound Plate Preparation:
For serial dilutions, 34.6 μl DMSO was added to columns 3-24. For the assay controls, 37.5 μl DMSO was added to columns 1 and 2 of rows A and P. a,d and 50 μl 25 μM G-028831 (Staurosporine) was added to columns 1 and 2, row B. For the samples: to start at 100 μM, 37.5 μl DMSO was to columns 1 and 2, then 12.5 μl 10 mM compound; to start at 10 μM, 78 μl DMSO was added to columns 1 & 2, then 2 μl 10 mM compound; and to start at 1 μM, 25 μM compound (2 μl 10 mM cmpd+798 μl DMSO) was added to empty columns 1 and 2. A Precision instrument was used to perform 1:3.16 serial dilutions (“PLK_BM_serial_halflog”).
ATP was diluted to 282.1 μM in Complete Kinase Buffer (final concentration was 130 μM).
Total and Blank Preparation:
In Complete Reaction Buffer, substrate was diluted to 4 μM. Equal volumes of Complete Reaction Buffer and 4 μM substrate were combined to obtain the blank. Equal volumes of Complete Reaction Buffer and 4 μM substrate were combined and to the combined solution was added 2× final LRRK2 concentration.
To a 50 μl polypropylene plate, 5 μl/well buffer/substrate was added by hand to Blank wells. A Biomek FX was used to start the kinase reaction (“PLK SAR 23 ATP”). The following were added to the appropriate wells:
5 μl/well compound/ATP in Assay Plate;
5 μl/well kinase/substrate in Assay Plate;
The plate was incubated for 2 hours in the dark. Biomek FX was used to stop the kinase reaction (“PLK Stop”), and 10 μl/well Stop solution was added to the Assay Plate. Results were read on the LabChip 3000.
The LabChip 3000 was run using the job “LRRK2IC50” with the following job settings: […]
Chain of LRRK2 (Q5S007 970-2527 G2019S limits assumed): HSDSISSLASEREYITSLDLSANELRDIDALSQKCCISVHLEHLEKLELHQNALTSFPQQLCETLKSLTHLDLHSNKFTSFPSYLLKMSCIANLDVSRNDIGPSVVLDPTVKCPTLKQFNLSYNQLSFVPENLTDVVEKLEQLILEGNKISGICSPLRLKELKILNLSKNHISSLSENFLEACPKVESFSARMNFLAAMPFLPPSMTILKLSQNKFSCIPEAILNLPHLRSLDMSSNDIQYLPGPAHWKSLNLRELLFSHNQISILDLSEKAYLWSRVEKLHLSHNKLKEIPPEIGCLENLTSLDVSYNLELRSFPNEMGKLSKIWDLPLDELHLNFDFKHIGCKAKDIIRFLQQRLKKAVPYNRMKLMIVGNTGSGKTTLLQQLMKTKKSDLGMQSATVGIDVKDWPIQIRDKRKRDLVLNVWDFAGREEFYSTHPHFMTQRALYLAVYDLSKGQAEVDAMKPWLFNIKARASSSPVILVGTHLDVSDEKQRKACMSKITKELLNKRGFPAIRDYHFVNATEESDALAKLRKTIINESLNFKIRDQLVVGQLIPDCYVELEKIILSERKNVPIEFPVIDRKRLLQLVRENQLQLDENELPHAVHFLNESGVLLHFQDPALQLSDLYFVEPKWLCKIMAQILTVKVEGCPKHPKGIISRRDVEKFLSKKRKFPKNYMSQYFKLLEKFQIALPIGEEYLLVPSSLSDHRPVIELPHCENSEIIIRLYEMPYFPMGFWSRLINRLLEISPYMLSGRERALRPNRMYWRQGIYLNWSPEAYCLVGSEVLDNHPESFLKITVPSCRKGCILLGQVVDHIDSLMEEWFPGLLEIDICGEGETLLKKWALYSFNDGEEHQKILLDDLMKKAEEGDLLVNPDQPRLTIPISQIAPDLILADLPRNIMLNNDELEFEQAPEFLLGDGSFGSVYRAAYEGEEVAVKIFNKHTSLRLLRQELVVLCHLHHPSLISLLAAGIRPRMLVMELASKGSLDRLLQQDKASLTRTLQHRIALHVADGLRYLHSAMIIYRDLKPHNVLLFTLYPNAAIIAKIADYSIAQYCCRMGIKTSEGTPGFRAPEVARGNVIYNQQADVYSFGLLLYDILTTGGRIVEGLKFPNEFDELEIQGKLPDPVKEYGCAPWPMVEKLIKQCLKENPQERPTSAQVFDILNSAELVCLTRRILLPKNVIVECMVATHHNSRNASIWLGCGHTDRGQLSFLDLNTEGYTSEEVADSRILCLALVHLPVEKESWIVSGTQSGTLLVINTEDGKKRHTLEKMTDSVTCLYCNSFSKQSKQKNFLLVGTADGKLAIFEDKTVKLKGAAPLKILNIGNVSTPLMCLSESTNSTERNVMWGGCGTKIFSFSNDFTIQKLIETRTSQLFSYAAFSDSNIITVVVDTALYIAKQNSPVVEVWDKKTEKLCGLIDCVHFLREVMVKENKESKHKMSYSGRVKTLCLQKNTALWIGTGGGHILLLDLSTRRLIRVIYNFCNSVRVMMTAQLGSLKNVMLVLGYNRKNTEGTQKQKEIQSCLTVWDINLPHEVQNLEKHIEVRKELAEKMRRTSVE
A word on the Ki: it is the equilibrium dissociation constant of an inhibitor or competing ligand from its target. A higher Ki goes with a looser hold on the target. The molecule `CNc1nc(Nc2ccc(C(=O)N3CCN(C(=O)C4CC4)CC3)cc2OC)ncc1Cl` [Example 70, [4-(5-Chloro-4-methylamino-pyrimidin-2-ylamino)-3-methoxy-phenyl]-(4-cyclopropanecarbonyl-piperazin-1-yl)-methanone] returned a Ki of 2.2 nM. The value for `CNc1nc(Nc2ccc(C(=O)N3CCC(C(C)(C)O)CC3)cc2OC)ncc1Br` [Example 71, [4-(5-Bromo-4-methylamino-pyrimidin-2-ylamino)-3-methoxy-phenyl]-[4-(l-hydroxy-1-methyl-ethyl)-piperidin-1-yl]-methanone] was 2.4 nM; that for `CNc1nc(Nc2ccc(C(=O)N3CCC(C(F)(F)F)C3)cc2OC)ncc1Br` (stereo not drawn) [Example 72, [4-(5-Bromo-4-methylamino-pyrimidin-2-ylamino)-3-methoxy-phenyl]-(3-trifluoromethyl-pyrrolidin-1-yl)-methanone] was 6.4 nM. The value for `CNc1nc(Nc2ccc(C(=O)N3CCC(C#N)CC3)cc2OC)ncc1Br` [Example 73, l-[4-(5-Bromo-4-methylamino-pyrimidin-2-ylamino)-3-methoxy-benzoyl]-piperidine-4-carbonitrile] was 4.1 nM. Regarding `CNc1nc(Nc2ccc(C(=O)N3CCN(C4CCC4)CC3)cc2OC)ncc1Br` [Example 74], the inhibition constant (Ki) is 2.3 nM. Molecule `CNc1nc(Nc2ccc(C(=O)N3CCN(CC(F)(F)F)CC3)cc2OC)ncc1Br` [Example 75, [4-(5-Bromo-4-methylamino-pyrimidin-2-ylamino)-3-methoxy-phenyl]-[4-(2,2,2-trifluoro-ethyl)-piperazin-1-yl]-methanone] showed a Ki of 3.8 nM. Compared with the last molecule, the Ki is about 1.7-fold higher.

Molecule `CNc1nc(Nc2ccc(C(=O)N3CCC(OC)CC3)cc2OC)ncc1Br` [Example 76, [4-(5-Bromo-4-methylamino-pyrimidin-2-ylamino)-3-methoxy-phenyl]-(4-methoxy-piperidin-1-yl)-methanone] yielded a Ki of 2.4 nM. Molecule `CNc1nc(Nc2ccc(C(=O)N3CC[C@@H](O)C3)cc2OC)ncc1Br` [Example 77, [4-(5-Bromo-4-methylamino-pyrimidin-2-ylamino)-3-methoxy-phenyl]-((R)-3-hydroxy-pyrrolidin-1-yl)-methanone] had an inhibition constant Ki of 5.1 nM. This Ki is about 2.1-fold higher than that of the molecule before.

On to `CNc1nc(Nc2ccc(C(=O)N3CCN(C4COC4)CC3)cc2OC)ncc1Br` [Example 78, [4-(5-Bromo-4-methylamino-pyrimidin-2-ylamino)-3-methoxy-phenyl]-(4-oxetan-3-yl-piperazin-1-yl)-methanone], for which the Ki stood at 8 nM. Turning to `CNc1nc(Nc2ccc(C(=O)N3CCOCC3)cc2OC(C)C)ncc1Cl` [Example 79, [4-(5-Chloro-4-methylamino-pyrimidin-2-ylamino)-3-isopropoxy-phenyl]-morpholin-4-yl-methanone], the inhibition constant Ki turned out to be 15.6 nM. The value for `COc1cc(C(=O)N2CCOCC2)ccc1Nc1ncc(Cl)c(NCC2CC2)n1` [Example 80, {4-[5-Chloro-4-(cyclopropylmethyl-amino)-pyrimidin-2-ylamino]-3-methoxy-phenyl}-morpholin-4-yl-methanone] was 2.7 nM; that for `COc1cc(C(=O)N2CCOCC2)ccc1Nc1ncc(Cl)c(NC2CCC2)n1` [Example 81, [4-(5-Chloro-4-cyclobutylamino-pyrimidin-2-ylamino)-3-methoxy-phenyl]-morpholin-4-yl-methanone] was 1.5 nM. Under `CNc1nc(Nc2ccc(C(=O)N3CCOCC3)cc2O)ncc1Cl` [Example 82, [4-(5-Chloro-4-methylamino-pyrimidin-2-ylamino)-3-hydroxy-phenyl]-morpholin-4-yl-methanone] stands 28.9 nM.

With `COc1nc(Nc2ccc(C(=O)N3CCOCC3)cc2OC2CCC2)ncc1Br` [Example 85, [4-(5-Bromo-4-methoxy-pyrimidin-2-ylamino)-3-cyclobutoxy-phenyl]-morpholin-4-yl-methanone], the affinity corresponds to a Ki of 2.8 nM.

As to `CCNc1nc(Nc2cc(F)c(C(=O)N3CCOCC3)cc2OC)ncc1Cl` [Example 87, [4-(5-Chloro-4-ethylamino-pyrimidin-2-ylamino)-2-fluoro-5-methoxy-phenyl]-morpholin-4-yl-methanone], the affinity corresponds to a Ki of 2.5 nM.

For `COc1cc(C(=O)N2CC(N3CCOCC3)C2)ccc1Nc1ncc(Br)c(OC)n1` [Example 88, [4-(5-Bromo-4-methoxy-pyrimidin-2-ylamino)-3-methoxy-phenyl]-(3-morpholin-4-yl-azetidin-1-yl)-methanone], the Ki came out at 5 nM. This Ki lies about 2-fold higher than the previous one. Molecule `CNc1nc(Nc2ccc(C(=O)N3CC(N4CCOCC4)C3)cc2OC)ncc1Cl` [Example 89, [4-(5-Chloro-4-methylamino-pyrimidin-2-ylamino)-3-methoxy-phenyl]-(3-morpholin-4-yl-azetidin-1-yl)-methanone] came in with an inhibitory constant (Ki) of 2.7 nM.

As for `COc1cc(C(=O)N2CCOCC2)ccc1Nc1ncc(Cl)c(NC2(C)CCC2)n1` [Example 91, {4-[5-Chloro-4-(1-methyl-cyclobutylamino)-pyrimidin-2-ylamino]-3-methoxy-phenyl}-morpholin-4-yl-methanone], the Ki was 2.4 nM. Molecule `COc1cc(C(=O)N2CCOCC2)ccc1Nc1ncc(Cl)c(NCC2CCOC2)n1` (stereo not drawn) [Example 93, (4-{5-Chloro-4-[(tetrahydro-furan-3-ylmethyl)-amino]-pyrimidin-2-ylamino}-3-methoxy-phenyl)-morpholin-4-yl-methanone] returned a Ki of 14.1 nM. The value for `COc1cc(C(=O)N2CCOCC2)ccc1Nc1ncc(I)c(OC)n1` [Example 101, [4-(5-Iodo-4-methoxy-pyrimidin-2-ylamino)-3-methoxy-phenyl]-morpholin-4-yl-methanone] was 2.1 nM; that for `CNc1nc(Nc2ccc(C(=O)N3CCOCC3)cc2OC)ncc1C1CC1` [Example 103, [4-(5-Cyclopropyl-4-methylamino-pyrimidin-2-ylamino)-3-methoxy-phenyl]-morpholin-4-yl-methanone] was 89.5 nM; that for `COc1cc(C(=O)N2CCOCC2)ccc1Nc1ncc(Cl)c(NCCC2CC2)n1` [Example 104, {4-[5-Chloro-4-(2-cyclopropyl-ethylamino)-pyrimidin-2-ylamino]-3-methoxy-phenyl}-morpholin-4-yl-methanone] was 1.8 nM. The value for `COCCNc1nc(Nc2ccc(C(=O)N3CCOCC3)cc2OC)ncc1Cl` [Example 105, {4-[5-Chloro-4-(2-methoxy-ethylamino)-pyrimidin-2-ylamino]-3-methoxy-phenyl}-morpholin-4-yl-methanone] was 9.4 nM. Under `[2H]C1([2H])OCCN(C(=O)c2ccc(Nc3ncc(Br)c(OC)n3)c(OC)c2)[C@@H]1C` [Example 107, [4-(5-Bromo-4-methoxy-pyrimidin-2-ylamino)-3-methoxy-phenyl]-((R)-2,2-di-deutero-3-methyl-morpholin-4-yl)-methanone] stands 2 nM; under `COCCNc1nc(Nc2ccc(C(=O)N3CCOCC3)cc2OCC(F)(F)F)ncc1Cl` [Example 109, [4-[5-Chloro-4-(2-methoxy-ethylamino)-pyrimidin-2-ylamino]-3-(2,2,2-trifluoro-ethoxy)-phenyl]-morpholin-4-yl-methanone], 9.6 nM; under `CNc1nc(Nc2ccc(C(=O)N3CCOCC3)cc2Cl)ncc1Cl` [Example 115, [3-Chloro-4-(5-chloro-4-methylamino-pyrimidin-2-ylamino)-phenyl]-morpholin-4-yl-methanone], 6 nM. `CNc1nc(Nc2ccc(C(=O)N3CCOCC3)cc2OC)ncc1OC` [Example 133, (3-methoxy-4-(5-methoxy-4-(methylamino)pyrimidin-2-ylamino)phenyl) (morpholino) methanone] had a Ki of 259 nM.

On to `COCCOc1nc(Nc2ccc(C(=O)N3CCOCC3)cc2OC)ncc1Br` [Example 139, {4-[5-Bromo-4-(2-methoxy-ethoxy)-pyrimidin-2-ylamino]-3-methoxy-phenyl}-morpholin-4-yl-methanone], for which the affinity, expressed as Ki, was 5.7 nM. For the molecule `CNc1nc(Nc2cc(OC)c(C(=O)N(C)C)cc2Cl)ncc1Cl` [Example 140, 5-Chloro-4-(5-chloro-4-methylamino-pyrimidin-2-ylamino)-2-methoxy-N,N-dimethyl-benzamide], affinity was put at a Ki of 11.8 nM. Under `CNc1nc(Nc2cc(OC)c(C(N)=O)cc2Cl)ncc1Cl` [Example 141, 5-Chloro-4-(5-chloro-4-methylamino-pyrimidin-2-ylamino)-2-methoxy-benzamide] stands 9.3 nM.

(Values after patent US8802674B2, “Aminopyrimidine derivatives as LRRK2 modulators” (Genentech, Inc., priority 2011, dated 2014).)
